Data on eight compounds can be found in patent EP4813463A2, “TYK2 INHIBITORS AND COMPOSITIONS AND METHODS THEREOF” (Lynk Pharmaceuticals Co. Ltd., priority 2023, dated 2024).

≈ marks a conversion by molar mass, not a printed value. Where two headings read alike, the source gives them in different places.

One series has as its target T1, JAK1-JH2 domain (Homo sapiens, UniProt P23458).
T1 construct: JAK1-JH2 domain or TYK2-JH2 domain enzyme in assay buffer
Briefly: Binding activity test for JH2 domain of JAK1 (Tb-antibody/tracer FRET). The note with it: JH2 domain enzyme; 60 min at 25°C, then 4°C overnight; read-out: JAK1 JH2 Binding IC50. An outline of the steps: (§1)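 IC50 values (nM) come from TR-FRET readings taken after a 25°C incubation followed by overnight at 4°C. Each well held JH2 domain protein, Tb-antibody, tracer and test compound titrated in 11 threefold steps, with DMSO high and low controls.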

Series [1] in a line: Microsomal metabolic stability assay. Type of series: in vitro ADME. The note with it: human, liver microsomes, pH 7.4, 0.5 mg/mL microsomal protein, 1 µM test article, 2 mM NADPH. The gist of the method:
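Test or control compound (1 µM) incubated with microsomes (0.5 mg/mL protein) in 100 mM potassium phosphate pH 7.4, 1.0 mM EDTA at 37°C, started with NADPH regenerating system (2 mM NADPH). Sampled at 0, 5, 15, 30, 45 min, acetonitrile-quenched, LC/MS/MS. T1/2 from ln %remaining vs time slope; CLint = 0.693/T1/2 per mg protein/mL.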
For orientation: Liver microsomes are vesicles of endoplasmic reticulum, rich in cytochrome P450 enzymes.

A short description of another series: Kinetic solubility. Type of series: physicochemical. The settings on record: phosphate buffer, pH 7.4, aqueous buffer, kinetic from dmso stock, 100 mM pH 7.4 phosphate buffer, 1% DMSO, room temperature, read-out: Kinetics Solubility_PBS7.4. The gist of the method:
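Compounds diluted from 10 mM/5 mM DMSO stocks into 100 mM phosphate buffer pH 7.4 (1% DMSO final), shaken 2 h at room temperature, then centrifuged. Dissolved compound in supernatant quantified by LC-MS/MS against a standard curve.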

In another series the test system is TYK2 pathway. Briefly: IFN-γ release in NK92 cells stimulated by IL-12 (ELISA). In kind it is cell-based. The settings on record: IL-12 2.5ng/mL stimulation 15hrs, IFN-γ in supernatant by ELISA. The procedure:
IFN-γ Release in NK92 Cells Stimulated by IL-12
Purpose: To evaluate the inhibition activity of TYK2 inhibitors in NK92 cells on TYK2 pathway through ELISA method.
Procedure: 1) Seeding NK92 cells into 96-well plate, cell density is 1.5E5 cells/well, 100uL/well; 2)Add prepared test articles into indicated wells, 50uL/well, and continue incubate for 1h, at 37°C; 3) After compound treatment, add 50uL/well IL-12 into indicated wells, final concentration of IL-12 is 2.5ng/mL; 4)Incubate cytokine stimulated cells at 37°C for another 15hrs in CO2 incubator; 5) After cytokine stimulation, transfer culture supernatant into a new plate and centrifuge for 5min at 350x g, and detect IFN-γ concentration in the supernatant with ELISA kit; 6) Data analysis with GrapdPad Prism6.0 software. Table 5. IC50 Values of Exemplary Compounds on TYK2 Pathway
On the technique in general: An ELISA detects its analyte on a solid surface through an enzyme-linked reagent.

For another series, the system named is pSTAT1. Put plainly: Phosphorylation inhibition of STAT in human whole blood (IFN-alpha stimulated, flow cytometry). In kind it is cell-based. The note with it: T-cell, 20 min, IFN-alpha stimulation 20 mins, CD3 T cells, read-out: pSTAT1 inhibition in hWB (IC50). The gist of the method: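 Fresh human whole blood stimulated 20 min with human universal type I IFN-alpha, then fixed, permeabilised and stained for CD3 and pSTAT1 (Y701). pSTAT1 in T cells read by flow cytometry; IC50 from 4-parameter logistic fit.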
For orientation: Flow cytometry measures light scatter and fluorescence of single cells or particles in a stream.

In a further series the target is T2, TYK2-JH2 domain (Homo sapiens, UniProt P29597).
T2 construct: JAK1-JH2 domain or TYK2-JH2 domain enzyme in assay buffer
Put plainly: Binding activity test for JH2 domain of TYK2 (Tb-antibody/tracer FRET). The note with it: for IC50: JH2 domain enzyme, 60 min at 25°C, then 4°C overnight, read-out: TYK2 JH2 Binding IC50; for JAK1/TYK2 selectivity: ratio of JAK1 JH2 to TYK2 JH2 binding IC50. The gist of the method:
as §1

In series [2] the test system is Ba/F3-FL-TYK2-P760L cells. Put plainly: Anti-proliferative assay in engineered Ba/F3 cells (Cell-Titer Glo, 72 h). In kind it is cell-based. The settings on record: 72 h compound treatment, concentration that causes 50% growth inhibition, read-out: Baf3-FL-T2P760L. An outline of the steps: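 IC50 from luminescent ATP viability after 72 h compound exposure (37 °C, 5% CO2), % inhibition normalised to DMSO-treated cells minus medium blank. IL-3-free Ba/F3-FL-TYK2-P760L (Tel-JAK fusion) cells in 10% FBS RPMI-1640 received 9 three-fold doses, top 20 µM, 0.1% DMSO.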

Series [3] is described as follows: Brain pharmacokinetic studies in rats. Type of series: in vivo, Sprague-Dawley rats. How it is done: Pharmacokinetic profiles of test articles were evaluated in fasted Sprague-Dawley rats. Different kinds of formulations were designed to ensure test articles fully dissolved and wouldn't precipitate in 1:10 SGF or FaSSIF dilution. Typically, Rats were dosed with 3 mg/kg and 5 mg/kg by intravenous injection and oral gavage, respectively. The animal was restrained manually at the designated time points, approximately 150 µL of blood sample was collected via jugular vein for serial bleeding into K2EDTA tubes. The blood samples were maintained in wet ice first and centrifuged to obtain plasma (2000g, 4°C, 5 min) within 30 minutes post sampling. Anesthetizing the rat with the Isoflurane vaporizer to 2%~3% and place its back on the operation table. Spread the animal limbs and pin the limbs on the operation table. Make a cut along the sternum about 4cm long, low enough to expose the sternum's end. Expose the heart and use a 25-gauge needle connected with a 20 mL syringe filled with 20 mL of cold saline to pierce the left ventricle. Maintain the placement of the needle, and slowly push the syringe plunger to wash the brain with saline. The perfusion will be finished within about 2 min and then take the brain out of the body carefully without damaging the tissue. Dry the tissue on filtrate paper, which should be placed on ice, and then weigh the brain tissue and store at -70 °C and analyzed by LC/MS/MS for quantification. PK parameter values, including, but not necessarily limited to, the maximum plasma concentrations (Cmax), and the area under the plasma concentration vs. time curve (AUC) from time zero to 24-hour (AUC0-24h) were determined using WinNonlin program. Table 13. Systemic Pharmacokinetic Parameters in Sprague-Dawley Rats

The next series is described as follows: Caco-2 cell permeability. Type of series: in vitro ADME. The note with it: human, Caco-2, 10.0 µM, no p-gp inhibitor. The procedure: Compounds permeability was evaluated using Caco-2 cell lines. HBSS buffer was used as transfer buffer. Appropriate dosing and receiver solutions were applied to the donor and receiver chambers to initiate the transport assay in apical to basolateral (A to B) or basolateral to apical (B to A) directions. Compounds were tested at 10.0 µM in the absence of p-gp inhibitor bidirectionally in duplicates. After incubation at 37°C for 90 mins, donor and receiver samples were analyzed by LC-MS/MS. The intestinal absorption potential was assessed using Papp value and efflux ratio.

T2 sequence (P29597 589-875 limits assumed): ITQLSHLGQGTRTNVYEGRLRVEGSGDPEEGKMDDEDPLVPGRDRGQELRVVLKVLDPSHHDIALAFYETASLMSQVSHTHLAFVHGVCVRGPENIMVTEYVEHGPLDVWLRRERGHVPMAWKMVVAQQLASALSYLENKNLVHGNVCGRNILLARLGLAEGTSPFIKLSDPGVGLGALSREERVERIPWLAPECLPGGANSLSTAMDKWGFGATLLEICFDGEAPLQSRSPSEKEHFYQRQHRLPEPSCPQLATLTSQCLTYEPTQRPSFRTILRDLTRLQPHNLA
T1 sequence (P23458 583-855 limits assumed): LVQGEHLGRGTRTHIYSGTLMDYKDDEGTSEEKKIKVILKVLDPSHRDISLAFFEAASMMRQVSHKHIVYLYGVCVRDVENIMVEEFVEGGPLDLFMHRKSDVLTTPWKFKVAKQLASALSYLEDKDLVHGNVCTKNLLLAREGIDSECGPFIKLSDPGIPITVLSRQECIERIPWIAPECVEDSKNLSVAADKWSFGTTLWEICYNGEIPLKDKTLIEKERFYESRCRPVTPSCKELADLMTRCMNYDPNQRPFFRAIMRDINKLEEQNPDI

With `[2H]C([2H])([2H])NC(=O)c1cnc(NC(=O)[C@@H]2C[C@@H]2F)cc1Nc1cnn2ccc(C(O)C(F)(F)F)c(OC)c12` (single isomer, unassigned) [Example 15A, 6-((1S,2S)-2-fluorocyclopropane-1-carboxamido)-4-((4-methoxy-5-((S*)-2,2,2-trifluoro-1-hydroxyethyl)pyrazolo[1,5-a]pyridin-3-yl)amino)-N-(methyl-d3)nicotinamide], the IC50 was determined as 12.5 nM on JAK1-JH2 domain; 15.7 nM with TYK2 pathway; 34.8 nM in the series on pSTAT1; 0.078 nM at TYK2-JH2 domain; 10.6 nM in series [2]. Further, in series [1] (read-out: Human LM Clint), the microsomal CLint at 1 µM turned out to be 11.9 µL/min/mg. The half-life at 1 µM in series [1] (read-out: Human LM T1/2) was found to be 116 min. Further, in the series “Kinetic solubility”, the solubility kinetic at 2 h is 23.9 µM (≈ 11.9 µg/mL). Moreover, on TYK2-JH2 domain, the JAK1/TYK2 selectivity was determined as 160.8.

As to `COC(=O)c1cnc(NC(=O)C2CC2)cc1Nc1cnn2ccc([C@H](O)C(F)(F)F)c(OC)c12` [Example 26, Methyl (5)-6-(cyclopropanecarboxamido)-4-((4-methoxy-5-(2,2,2-trifluoro-1-hydroxyethyl)pyrazolo[1,5-a]pyridin-3-yl)amino)nicotinate], the IC50 on JAK1-JH2 domain is 61.9 nM; with TYK2 pathway, 17.6 nM; on TYK2-JH2 domain, 0.183 nM; in series [2] (Mus musculus, BaF3, 72 h), 35.2 nM. Further, the half-life in series [3] (Sprague-Dawley, rat, brain, rats, iv, 3 mg/kg, solution) is 119 min; in series [3] (Sprague-Dawley, rat, systemic (plasma), rats, iv, 3 mg/kg, solution), 91.8 min. Also, in [3] (Sprague-Dawley, rat, brain, rats, iv, 3 mg/kg, solution, read-out: Brain AUC/Systemic AUC), the Kp was determined as 0.11. Further, the AUC in series [3] (Sprague-Dawley, rat, systemic (plasma), rats, iv, 3 mg/kg, solution, read-out: AUC) is 1290 ng·h/mL; in series [3] (brain, rats, iv, 3 mg/kg, solution), 140 ng·h/g. In series [3] (result in words), the “brain exposure in Rats” value was “good brain exposure”. In addition, the JAK1/TYK2 selectivity on TYK2-JH2 domain is recorded as 338.1.

Turning to `[2H]C([2H])([2H])NC(=O)c1cnc(NC(=O)C2CC2)nc1Nc1cnn2ccc([C@H](O)C(F)(F)F)c(OC)c12` [Example 33, (S)-2-(cyclopropanecarboxamido)-4-((4-methoxy-5-(2,2,2-trifluoro-1-hydroxyethyl)pyrazolo[1,5-a]pyridin-3-yl)amino)-N-(methyl-d3)pyrimidine-5-carboxamide], the IC50 was 34.3 nM at JAK1-JH2 domain; 0.082 nM at TYK2-JH2 domain; 16 nM in series [2] (Mus musculus, BaF3, 72 h). Besides, the solubility kinetic at 2 h in the series “Kinetic solubility” was 59.4 µM (≈ 28.6 µg/mL). The same compound came in with a Papp A→B at 90 min, 10 µM in “Caco-2 cell permeability” (90 mins, A to B) of 0.39 ×10⁻⁶ cm/s. This compound had an apparent permeability from basolateral to apical (Papp B→A) at 90 min, 10 µM in “Caco-2 cell permeability” (90 mins, B to A) of 46.5 ×10⁻⁶ cm/s. In addition, in the series “Caco-2 cell permeability” (read-out: Efflux Ratio: Papp(B-A)/Papp(A-B)), the efflux ratio at 90 min, 10 µM was determined as 121. The JAK1/TYK2 selectivity at TYK2-JH2 domain was 418.3.

As to `[2H]C([2H])([2H])NC(=O)c1cnc(NC(=O)C2CC2)cc1Nc1cnn2ccc([C@H](OC(C)=O)C(F)(F)F)c(OC)c12` [Example 43, (S)-1-(3-((2-(cyclopropanecarboxamido)-5-((methyl-d3)carbamoyl)pyridin-4-yl)amino)-4-methoxypyrazolo[1,5-a]pyridin-5-yl)-2,2,2-trifluoroethyl acetate], the IC50 on JAK1-JH2 domain amounted to 71.3 nM; in the series on TYK2 pathway, 22.6 nM; in the series on pSTAT1 it was 174 nM; at TYK2-JH2 domain it was 0.175 nM; in series [2] (Mus musculus, BaF3, 72 h), 20.6 nM. Also, the solubility kinetic at 2 h in the series “Kinetic solubility” came out at 33.3 µM. Moreover, the JAK1/TYK2 selectivity on TYK2-JH2 domain was 407.2.

`CNC(=O)c1cnc(NC(=O)C2CC2)cc1Nc1nn(C)c2cccc(OC)c12` [Example 100, 6-(Cyclopropanecarboxamido)-4-((4-methoxy-1-methyl-1H-indazol-3-yl)amino)-N-methylnicotinamide]: the IC50 on JAK1-JH2 domain was determined as 113 nM; with TYK2 pathway, 86.8 nM; on TYK2-JH2 domain, 0.97 nM; in series [2] (Mus musculus, BaF3, 72 h) it was 505 nM. The JAK1/TYK2 selectivity on TYK2-JH2 domain worked out at 116.4.

Regarding `CCC(=O)c1cnc(NC(=O)C2CC2)cc1Nc1ccn2nccc2c1OC` [Example 195, N-[4-[(4-Methoxypyrazolo[1,5-a]pyridin-5-yl)amino]-5-propanoyl-2-pyridyl]cyclopropanecarboxamide, reference compound], the IC50 on JAK1-JH2 domain is 67.1 nM; in the series on TYK2 pathway, 1500 nM; in the series on pSTAT1, greater than 5000 nM; at TYK2-JH2 domain, 2.96 nM; in series [2] (Mus musculus, BaF3, 72 h) it was 329 nM. In addition, the JAK1/TYK2 selectivity at TYK2-JH2 domain was determined as 22.68.

Consider `CCC(=O)c1cnc(NC(=O)C2CC2)cc1Nc1ccc2cn[nH]c2c1OC` [Example 196, N-(4-((7-Methoxy-1H-indazol-6-yl)amino)-5-propionylpyridin-2-yl)cyclopropanecarboxamide, reference compound], for which the IC50 at JAK1-JH2 domain was 31.6 nM; with TYK2 pathway it was 923 nM; in the series with pSTAT1, greater than 10000 nM; at TYK2-JH2 domain, 3.93 nM. The JAK1/TYK2 selectivity at TYK2-JH2 domain is given as 8.04.

As for `CCC(=O)c1cnc(NC(=O)C2CC2)cc1Nc1ccc2[nH]cnc2c1OC` [Example 197, N-[4-[(4-Methoxy-1H-benzimidazol-5-yl)amino]-5-propanoyl-2-pyridyl] cyclopropanecarboxamide, reference compound], the IC50 at JAK1-JH2 domain stood at 17.4 nM; with TYK2 pathway, 515 nM; on TYK2-JH2 domain, 2.72 nM; in [2] (Mus musculus, BaF3, 72 h) it was 426 nM. Besides, the JAK1/TYK2 selectivity at TYK2-JH2 domain amounted to 6.41.

The term Papp A→B denotes how fast a substance crosses the layer from the apical side. The low end stands for poor permeation, the high end for ready permeation. In general, Papp B→A refers to how fast a substance crosses the layer from the basolateral side.
